The source of these data is patent US20230292776A1, “GAS PHASE TREATMENT OF PRODUCE” (priority 2022, published 2023).

The test relates to avocados. The test can be described thus: Durometer shore (firmness, ripening) of treated avocados. It counts as in vivo, avocado. The settings on record: for average increase of shore over uninfected and untreated avocados: Example 22. As to the method:
Example 9. The antifungal activity of a range of AITC and carvacrol vapor exposure times was tested against Cg in avocados. To measure the effect of the various treatments on ripening, durometer shore was taken after 7 days of incubation at ambient temperature and high humidity. All samples were wounded by removing the stem and infected by dispensing 1000 Cg spores suspended in 10 μL of water in the wound. The test groups consisted of avocados that were: infected and left untreated on the benchtop; infected and left untreated under a fume hood; exposed to the vapor of 3 mL of AITC in a Petri dish for 24 hours, 48 hours, and 72 hours; and exposed to the vapor of 3 mL of carvacrol in a Petri dish for 72 hours. FIG. 11 quantifies the infection results. […] All exposure times to AITC vapor reduced the incidence of Cg mold compared to the untreated samples. A 24 hour AITC exposure reduced the incidence of Cg mold by 90%. A 48 hour AITC exposure reduced the incidence of Cg mold by 97%. A 72 hour AITC exposure reduced the incidence of Cg mold by 83%.
Example 10. The antifungal activity of a range of AITC vapor exposure times were tested against Cg in avocados. To measure the effect of the various treatments on ripening, durometer shore was taken after 6 days of incubation at ambient temperature and high humidity. All samples were wounded by removing the stem and infected by dispensing 1000 Cg spores suspended in 10 μL of water in each wound. The test groups consisted of avocados that were: infected and left untreated on the benchtop; infected and left untreated in a fume hood; exposed to the vapor of 3 mL of AITC in a Petri dish for 24 hours, 48 hours, and 72 hours. FIG. 13 quantifies the infection results. […] All exposure times to AITC vapor reduced the incidence of Cg mold compared to the untreated samples.
Example 21. The antifungal activity of avocados exposed to AITC vapor and prochloraz was tested against Cg in avocados. To measure the effect of the various treatments on ripening, durometer shore was taken after 5 days of incubation at ambient temperature (about 20° C. to about 25° C.) and high humidity (about 88% relative humidity to about 93% relative humidity). All samples were wounded by removing the stem and infected by dispensing 1000 Cg spores suspended in 10 μL of water in the wound. Exposure to vapor was done by placing the avocados in an airtight container, dispensing AITC onto Whatman filter paper discs, suspending the discs in front of a battery-powered fan, closing the container and incubating the avocados for 30 minutes. After vapor exposure, the avocados were left at ambient temperature, high humidity, and assessed for Cg mold on day 5. Treatment groups consisted of avocados that were: exposed for 30 minutes to the vapor of 125 μL of AITC disposed on a filter paper disc; dipped in a solution of 0.1 g/L of prochloraz and placed to dry on a rack in front of a fan for 30 min; infected and left untreated; and uninfected and untreated. […] To prepare the 0.1 g/L of prochloraz, 10 mg of prochloraz was mixed with 10 mL of ethanol and 90 mL of water. […] A 24 hour AITC exposure reduced the incidence of Cg mold by 90%. […] The mean shore value for the untreated avocados was 28.8 (standard deviation (SD)=10.8). The mean shore value for the infected avocados was 47.3 (SD=11.8). The mean shore value of the positive control, prochloraz treated avocados was 44.3 (SD=14.7). The mean shore value of the AITC treated avocados was 61.1 (SD=10.5).
Durometer Shore Measurement: A Fruit Hardness Tester— HPE III Fff w/Sphere Ø 5.0 mm Test Anvil is used for the measurements. The Operating Procedure is as follows: • 1) At room temperature and 1 atm pressure, switch on the measuring device and press the hull or sleeve against the specimen so that the contact surface of the pressure plate rests on the fruit. […]

For the compound `C=CCN=C=S` [AITC, allyl isothiocyanate], the “average increase of durometer shore over untreated avocados” value (Example 9, all AITC treatments (3 mL; 24, 48, 72 hours), after 7 days, P value<0.0001) is 20.3 shore. The “average increase of durometer shore over infected avocados” value (Example 10, all AITC treatments (3 mL; 24, 48, 72 hours), after 6 days, P value<0.005) worked out at 15.4 shore. In addition, the “shore higher than the untreated avocados” value (Example 21, 125 μL, 30 minutes, after 5 days) is listed as “more than 30 shore”. Besides, the mean shore value (Example 21, Cg-infected avocados, AITC 125 μL 30 minutes, prochloraz 0.1 g/L dip, after 5 days) was 61.1 (SD=10.5). Further, the “average increase of shore over uninfected and untreated avocados” value was “about 10 shore” (250 μL, 30 minutes, after 5 days, P value=0.0016) and “about 28.5 shore” (500 μL, 30 minutes, after 5 days, P value<0.0001). Besides, under “Example 23, 500 μL AITC vapor, coating agent 40 g/L dip, after 11 days, P value<0.0001”, the “average increase of shore over untreated avocados” value turned out to be 22.5 shore.
